This note sets out measurements from patent US7399786B2, “Derivatives of amino acids for treatment of obesity and related disorders” (Bexel Pharmaceuticals, Inc., priority 2005, dated 2008).

Experiment [1] can be described thus: High fat diet induced obesity (DIO) model. Type of experiment: in vivo, C57BL/6J male mice. The following applies: DIO mice. How it is done: Six week old C57BL/6J male mice were fed with high fat (60%) diet for 14 days. From day 15 onwards animals were treated with compound 9 at a dose of 50 mg/kg body weight or sibutramine (5 mg/kg bw) for 60 days. All the animals were dosed once daily during morning hours up to day 15. From day 16 to end of the study animals were dosed during evening hours.

Experiment [2] is described as follows: Hypoglycemic effect in normal lean mice. Type of experiment: in vivo, C57BL/6J lean male mice. The following applies: 50 mg/kg body weight for 60 days, measured every third day. How it is done:
C57BL/6J lean male mice were fed, ad libitum, with laboratory rodent diet and purified water. Animals were treated with compound 9 at a dose of 50 mg/kg body weight for 60 days. Blood glucose was measured with an ACCUCHECK® glucose meter every third day during morning hours. No change in blood glucose levels was observed.

The subject of a further experiment is IL-1β. The experiment in a line: IL-1β inhibition in hPBMC, LPS challenge, ELISA. Type of experiment: cell-based, human. The conditions noted are these: 1 μM, LPS 100 ng/mL for 20 hours. The procedure:
(§1) Cells (1×10^6/mL) were challenged with lipopolysaccharides (LPS) at a concentration of (100 ng/mL) for 20 hours. Cell supernatant was analyzed for the presence of IL-6 and IL-1β by antibody directed enzyme-linked immunoassay (R & D Systems, MN, USA).
On the technique in general: An ELISA detects its analyte on a solid surface through an enzyme-linked reagent.

The test system of another experiment is LPS induced NO. The experiment can be described thus: Inhibition of LPS induced NO in mouse peritoneal macrophages. Type of experiment: cell-based. The conditions noted are these: compound 1 hour then LPS 10 μg/mL for 48 hrs. The procedure: Mouse peritoneal macrophages were isolated by injecting warm PBS in the peritoneum and cells were tapped out with syringe and stored in a tube. After two washes with PBS, cells were plated in 96 well plates and incubated with compound 9 for 1 hour and then challenged with LPS (10 μg/mL) for 48 hrs. Supernatant was assayed for NO by ELISA kit (R&D Biosystems).

For a further experiment, the system named is 3T3-L1 cells. The experiment in a line: PPARγ agonist induced adipocyte differentiation, Oil red O staining. The following applies: 11 days. Type of experiment: cell-based, mouse. The procedure: Adipogenesis is defined as the production of fat laden adipocytes from fibroblast cells. All known PPARγ agonists induce adipogenesis after a long term of treatment. […] Cells were cultured for 11 days and every 48 h fresh drug was given while changing the media.

In another experiment the test system is IL-6. The experiment can be described thus: IL-6 inhibition in hPBMC, LPS challenge, ELISA. Type of experiment: cell-based, human. The conditions noted are these: 1 μM, LPS 100 ng/mL for 20 hours. The procedure:
as §1

Where [3] appears, read: 50 mg/kg for 60 days, compared to control animals.

In the case of `CC(C)CC(N(C)C)C1(c2ccc(Cl)cc2)CCC1` (centres unmarked) [Sibutramine, reference compound], the bodyweight gain result in experiment [1] (5 mg/kg bw once daily for 60 days) is recorded as “Reduced Bodyweight Gain”.
As to `CN(C)C(=O)[C@@H](N)Cc1ccc(Oc2ccc(CCC(=O)NO)cc2)cc1.Cl` [compound 9, L-2-amino-3-{4-[4-(2-hydroxycarbamoylethyl)-phenoxy]-phenyl}-N,N-dimethylpropionamide hydrochloride], in experiment [2], the blood glucose levels entry is recorded as “No change”. Also, in experiment [1] (50 mg/kg body weight once daily for 60 days), the body weight result is “lowered body weight”. In addition, the oral glucose tolerance result in experiment [1] (50 mg/kg for 60 days) was “improved”. Also, in experiment [1] (setting [3]), the “free fatty acid levels” value is reported as “significantly lowered” and the triglyceride levels result was “significantly lowered”. Besides, the “inhibition of IL-1β” value in the experiment on IL-1β is recorded as “inhibition”. In addition, the NO production result in the experiment with LPS induced NO was “doses dependently inhibited NO production”. Besides, in the experiment with 3T3-L1 cells (10 μM alone, Oil red O), the “adipocyte differentiation (adipogenesis), compound alone” value is reported as “not adipogenic”. Also, in the experiment on 3T3-L1 cells (compound 10 μM mixed with rosiglitazone 1 μM), the “adipogenesis induced by PPARγ agonist, combined treatment” value is listed as “blocks the adipogenesis process induced by PPARγ agonist”. Besides, the “inhibition of IL-6” value in the experiment on IL-6 is “inhibition”.
